From patent US20250304623A1, “PEPTIDES FOR INTRACELLULAR DELIVERY” (UNIVERSIDADE DE SANTIAGO DE COMPOSTELA, priority 2022, published 2025) come the findings set out here.

Holding throughout (type): cell-based
Assay [1] relates to A549 cells expressing EGFP. Briefly: Cas9-RNP delivery against EGFP (gene editing, plate reader), A549. To be noted: A549 cells. In a few lines:
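EGFP knockout by Cas9-RNP was assessed in EGFP-expressing A549 cells. crRNA and tracrRNA were annealed, combined with Cas9 protein (4 μM in DMEM), and mixed with amphiphile. Cells were washed with PBS and exposed to the complexes in DMEM for 4 h, then given DMEM with 10% FBS. Fluorescence reduction versus untreated cells was measured 72 h later, subtracting background.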

For assay [2], the system named is ARPE19 cells expressing EGFP. The experiment in a line: Cas9-RNP delivery against EGFP (gene editing, plate reader), ARPE19. The method, boiled down: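 EGFP-expressing cells, generated by stable transfection with EGFP pDNA and G-418 selection, were plated in 96-well plates at 50,000 cell/mL (100 μL/w) in DMEM+10% FBS+1% Gln-Abt. Cas9-RNP targeting EGFP was complexed with amphiphile for 30 min, applied for 4 h at 50 nM RNP, and EGFP fluorescence was read on a plate reader after 72 h.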

Assay [3] concerns HepG2 cells expressing EGFP. The experiment in a line: Cas9-RNP delivery against EGFP (gene editing, plate reader), HepG2. In a few lines:
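Gene editing in EGFP-expressing HepG2 cells was estimated as the percentage drop in GFP fluorescence, measured in triplicate on a plate reader 72 h after Cas9-RNP delivery with amphiphiles. The RNP was made from annealed crRNA/tracrRNA plus 4 μM Cas9 and complexed with amphiphile before a 4 h exposure. Background from untreated control cells was subtracted.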

*: point of attachment. NHNH2 = NN*

“Ac-RK*LRRLLRK*-NH2 (Ac-RK(NHNH2)LRRLLRK(NHNH2)-NH2; not fully specified; printed as Ac-RK*LRRLLRK*-NH2; also: K*2,K*9: native or modified lysine (ε-amide to a linker)) [Peptide 9.2]”: the “percentage of gene editing, GFP fluorescence intensity decrease (% of reduction)” value was −22% in assay [1] (Dodecanal, 10 μM); 4% in assay [1] (Dodecanal, 15 μM); 9% in assay [1] (Myristoleyl, 5 μM); 7% in assay [1] (Myristoleyl, 10 μM); 14% in assay [1] (Myristoleyl, 15 μM); −2% in assay [2] (Dodecanal, 5 μM). In addition, the “percentage of gene editing, GFP fluorescence intensity decrease (% of reduction)” value in assay [2] (Dodecanal, 15 μM) is recorded as −17%; in assay [3] (Dodecanal, 10 μM), −35%; in assay [3] (Dodecanal, 15 μM), −35%; in assay [3] (Myristoleyl, 10 μM), −17%.
On to “Ac-RRHK*RLK*RRLK*RL-NH2 (Ac-RRHK(NHNH2)RLK(NHNH2)RRLK(NHNH2)RL-NH2; not fully specified; printed as Ac-RRHK*RLK*RRLK*RL-NH2; also: K*4,K*7,K*11: native or modified lysine (ε-amide to a linker)) [13(Leu-His)]”, for which the “percentage of gene editing, GFP fluorescence intensity decrease (% of reduction)” value in assay [1] (Myristoleyl, 5 μM) worked out at 13%; in assay [1] (Myristoleyl, 10 μM), 20%; in assay [1] (Myristoleyl, 15 μM) it was 45%; in assay [1] (Palmitoleyl, 15 μM), 21%; in assay [1] (Petroselinyl, 5 μM), 13%; in assay [1] (Petroselinyl, 10 μM), 16%. Moreover, the “percentage of gene editing, GFP fluorescence intensity decrease (% of reduction)” value is recorded as 42% in assay [1] (Petroselinyl, 15 μM); −6% in assay [2] (Oleyl, 10 μM); −13% in assay [2] (Palmitoleyl, 10 μM); 6% in assay [2] (Palmitoleyl, 15 μM); 22% in assay [2] (Petroselinyl, 15 μM); −37% in assay [3] (Dodecanal, 10 μM). Besides, the “percentage of gene editing, GFP fluorescence intensity decrease (% of reduction)” value is 11% in assay [3] (Myristoleyl, 10 μM); −22% in assay [3] (Oleyl, 15 μM); −36% in assay [3] (Palmitoleyl, 5 μM); 8% in assay [3] (Palmitoleyl, 10 μM); 13% in assay [3] (Palmitoleyl, 15 μM); −7% in assay [3] (Petroselinyl, 5 μM). Further, the “percentage of gene editing, GFP fluorescence intensity decrease (% of reduction)” value came to 9% in assay [3] (Petroselinyl, 10 μM) and 14% in assay [3] (Petroselinyl, 15 μM).
Turning to Ac-RRLK*RLK*RRLK*RL-NH2 [Peptide 13.3], the “percentage of gene editing, GFP fluorescence intensity decrease (% of reduction)” value in assay [1] (Dodecanal, 10 μM) is listed as 20%; in assay [1] (Myristoleyl, 5 μM) it was 21%; in assay [1] (Myristoleyl, 10 μM), 33%; in assay [1] (Myristoleyl, 15 μM), 62%; in assay [1] (Oleyl, 10 μM) it was 14%; in assay [1] (Oleyl, 15 μM), 48%. The “percentage of gene editing, GFP fluorescence intensity decrease (% of reduction)” value in assay [1] (Palmitoleyl, 10 μM) stood at 33%; in assay [1] (Palmitoleyl, 15 μM) it was 48%; in assay [1] (Petroselinyl, 5 μM) it was 12%; in assay [1] (Petroselinyl, 10 μM) it was 32%; in assay [1] (Petroselinyl, 15 μM) it was 56%; in assay [2] (Dodecanal, 10 μM), 13%. Also, the “percentage of gene editing, GFP fluorescence intensity decrease (% of reduction)” value in assay [2] (Dodecanal, 15 μM) was 18%; in assay [2] (Myristoleyl, 10 μM), 32%; in assay [2] (Myristoleyl, 15 μM), 38%; in assay [2] (Oleyl, 5 μM), 20%; in assay [2] (Petroselinyl, 15 μM), −11%; in assay [3] (Dodecanal, 5 μM) it was −27%. Further, the “percentage of gene editing, GFP fluorescence intensity decrease (% of reduction)” value is −11% in assay [3] (Dodecanal, 10 μM); −22% in assay [3] (Myristoleyl, 5 μM); 3% in assay [3] (Myristoleyl, 10 μM); −30% in assay [3] (Palmitoleyl, 5 μM); −19% in assay [3] (Palmitoleyl, 10 μM); −20% in assay [3] (Petroselinyl, 5 μM).
Regarding “Ac-RRLK*RLLRRLK*RL-NH2 (Ac-RRLK(NHNH2)RLLRRLK(NHNH2)RL-NH2; not fully specified; printed as Ac-RRLK*RLLRRLK*RL-NH2; also: K*4,K*11: native or modified lysine (ε-amide to a linker)) [Peptide 13.2]”, the “percentage of gene editing, GFP fluorescence intensity decrease (% of reduction)” value in assay [1] (Oleyl, 5 μM) is listed as 10%; in assay [1] (Oleyl, 10 μM) it was 12%; in assay [1] (Oleyl, 15 μM), 4%; in assay [2] (Oleyl, 5 μM), 13%; in assay [2] (Oleyl, 10 μM), −7%; in assay [3] (Dodecanal, 5 μM), −36%. In addition, the “percentage of gene editing, GFP fluorescence intensity decrease (% of reduction)” value is −41% in assay [3] (Dodecanal, 10 μM); 9% in assay [3] (Dodecanal, 15 μM); −21% in assay [3] (Oleyl, 10 μM); −33% in assay [3] (Oleyl, 15 μM).
